From patent publication US20180217163A1, “TREATMENT OF NEURODEGENERATIVE CONDITIONS USING PKC ACTIVATORS AFTER DETERMINING THE PRESENCE OF THE APOE4 ALLELE” (priority 2015, published 2018)

Key:
Assay type in all cases: cell-based, human
PKCε mRNA = PKCε mRNA expression in SH-SY5Y cells (qRT-PCR); settings: ASPD+ApoE4 treated cells plus PKC activator
Procedure: (§1) Human SH-SY5Y neuroblastoma cells (Sigma-Aldrich), were cultured in 45% F12K, 45% MEM, and 10% FBS. Cells were treated with cholesterol, ASPD, ApoE3/ApoE4+cholesterol, or PKC activators for 24 h. Cholesterol was dissolved in ethanol. ApoE (20 nM) and cholesterol (100 μM) were mixed separately into the cultures. To block the ApoE receptors, cells were treated with RAP for 30 min before adding ApoE. Human primary neurons (ScienCell Research Laboratories) were plated on poly-L-lysine-coated plates and were maintained in neuronal medium (ScienCell Research Laboratories) supplemented with the neuronal growth supplements (ScienCell Research Laboratories). Half of the culture medium was changed every 3 d and fresh activators were added with every medium change to maintain viable neurons.
qRT-PCR was performed and the results analyzed as described previously (Schmittgen et al., Analyzing real-time PCR data by the comparative C(T) method, Nat. Protoc., 3:1101-1108, 2008; Sen et al., 2012 supra). Total RNA (500 ng) was reverse transcribed using oligo(dT) and Superscript III (Invitrogen) at 50° C. for 1 h. The cDNA products were analyzed using a LightCycler 480 II (Roche) PCR machine and LightCycler 480 SYBR Green 1 master mix following the manufacturer's protocol. […]

[1] = test system: HDAC6-BDNF PIV association; assay: ChIP: HDAC6 association with BDNF promoter IV
Procedure: as §1
(§2) BDNF promoter- and exon specific primers were used as described previously (Pruunsild et al., Dissecting the human BDNF locus: bidirectional transcription, complex splicing, and multiple promoters, Genomics, 90:397-406, 2007). […]
(§3) ChIP was conducted using the SimpleChlP Enzymatic Chromatin IP kit (Cell Signaling Technology) following the manufacturer's protocol. […] The cumulative fluorescence for each amplicon was normalized to input DNA. […]

BDNF mRNA = BDNF mRNA expression in SH-SY5Y cells (qRT-PCR)
Procedure: as §1
(§4) qRT-PCR was performed and the results analyzed as described previously (Schmittgen et al., Analyzing real-time PCR data by the comparative C(T) method, Nat. Protoc., 3:1101-1108, 2008; Sen et al., 2012 supra). Total RNA (500 ng) was reverse transcribed using oligo(dT) and Superscript III (Invitrogen) at 50° C. for 1 h. The cDNA products were analyzed using a LightCycler 480 II (Roche) PCR machine and LightCycler 480 SYBR Green 1 master mix following the manufacturer's protocol. Primers for PKCε (forward primer: […], reverse primer: […], PKCα (forward-[…], reverse: […]), PKC (forward: […], reverse: CCGATG […]), GAPDH (forward: […], reverse: […]), and BDNF (forward: […], reverse: […]; Origene).

BDNF-exon IV = BDNF-exon IV expression in SH-SY5Y cells (qRT-PCR)
Procedure: as §1, §4
BDNF promoter- and exon specific primers were used as described previously (Pruunsild et al., Dissecting the human BDNF locus: bidirectional transcription, complex splicing, and multiple promoters, Genomics, 90:397-406, 2007). BDNF-promotor I (PI) (forward: […], reverse: […]), BDNF-promotor II (PII) (forward: […], reverse: […]), BDNF-promotor III (PIII) (forward: […], reverse: […]), BDNF-promoter (IV) (PIV) (forward: […], reverse: […]), BDNF-promoter IX (PIX) (forward: […], reverse: […]) were from Invitrogen. […]

[2] = test system: HDAC6-BDNF PIII association; assay: ChIP: HDAC6 association with BDNF promoter III
Procedure: as §1, §2, §3

HDAC4 = HDAC4 nuclear translocation in SH-SY5Y cells (immunoblot); settings: ApoE4+ASPD induced translocation, 24 h
Procedure: as §1
A PBS solution of 5×10^6 Human SH-SY5Y neuroblastoma cells was centrifuged and the resultant cell pellet was resuspended and washed twice with cold PBS. After the second wash, the cell pellet was resuspended in 500 μl of hypotonic buffer (20 mM Tris-Cl, pH 7.4, 10 mM NaCl, 3 mM MgCl2, and 1 mM PMSF) and incubated on ice for 15 min. Next, 25 μl of 10% NP-40 was added to the cell suspension and the sample was vortexed for 10 s. The homogenate was centrifuged for 10 min at 1000×g at 4° C. to obtain the cytoplasmic fraction (supernatant) and nuclear fraction (pellet). […] Protein concentration was measured using the Coomassie Plus (Bradford) Protein Assay kit (Pierce).
Protein in samples of the supernetant and nuclear fractions was separated by SDSPAGE in a 4-20% gradient Tris-Glycine gel (Invitrogen). […] The immunoblot proteins were detected using ImageQuant RT-ECL (GE Life Sciences) and densitometric quantification was performed using IMAL software, which was developed at our institution. […]

HDAC6 = HDAC6 nuclear translocation in SH-SY5Y cells (immunoblot); settings: ApoE4+ASPD induced translocation, 24 h
Procedure: as §1
A PBS solution of 5×10^6 Human SH-SY5Y neuroblastoma cells was centrifuged and the resultant cell pellet was resuspended and washed twice with cold PBS. After the second wash, the cell pellet was resuspended in 500 μl of hypotonic buffer (20 mM Tris-Cl, pH 7.4, 10 mM NaCl, 3 mM MgCl2, and 1 mM PMSF) and incubated on ice for 15 min. Next, 25 μl of 10% NP-40 was added to the cell suspension and the sample was vortexed for 10 s. The homogenate was centrifuged for 10 min at 1000×g at 4° C. to obtain the cytoplasmic fraction (supernatant) and nuclear fraction (pellet). After removing the supernetant, the nuclear pellet was resuspended in 50 μl of complete cell extraction buffer (100 mM Tris-Cl, pH 7.4, 2 mM Na3VO4, 100 mM NaCl, 1% Triton X-100, 1 mM EDTA, 10% glycerol, 1 mM EGTA, 0.1% SDS, 1 mM NaF, 0.5% deoxycholate, 20 mM Na4P2O7, and 1 mM PMSF) and incubated on ice for 30 min with vortexing at 10 min intervals. The nuclear lysate was centrifuged at 14,000×g for 30 min at 4° C. to obtain the nuclear fraction (supernatant). Protein concentration was measured using the Coomassie Plus (Bradford) Protein Assay kit (Pierce).
Protein in samples of the supernetant and nuclear fractions was separated by SDSPAGE in a 4-20% gradient Tris-Glycine gel (Invitrogen). The protein was then transferred to nitrocellulose membrane. The membrane was blocked with BSA at room temperature for 15 min and incubated with primary antibody overnight at 4° C. After incubation, the membrane was washed thrice (3×) with TBS-T (Tris-buffered saline-Tween 20) and further incubated with alkaline-phosphatase-conjugated secondary antibody (Jackson Immunoresearch Laboratories) at 1:10,000 dilution for 45 min. Following incubation, the membrane was washed 3× with TBS-T and developed using the 1-step NBT-BCIP substrate (Pierce). […] The immunoblot proteins were detected using ImageQuant RT-ECL (GE Life Sciences) and densitometric quantification was performed using IMAL software, which was developed at our institution. […]

CCCCCC1CC1CC1CC1CCCCCCCC(=O)OC (stereo not shown) [DCPLA-ME, DCPLA methyl ester]
PKCε mRNA levels (PKCε mRNA): 0.95±0.09 fold | effect on ApoE4+Chol induced HDAC6-PIV association [1]: blocked the ApoE4+Chol induced increase | BDNF expression (BDNF mRNA; cells treated with ApoE4+Chol+DCPLA-ME): 0.95±0.1 | BDNF expression (BDNF mRNA; cholesterol treated cells): 1.91±0.21 fold | BDNF-exon IV expression (BDNF-exon IV; ApoE3+Chol+DCPLA-ME): 1.98±0.13 | BDNF-exon IV expression (BDNF-exon IV; ApoE4+Chol+DCPLA-ME): 0.74±0.01 | BDNF-exon IV expression (BDNF-exon IV; DCPLA-ME+Chol): 1.85±0.27 fold | effect on ApoE4+Chol induced HDAC6-PIII association [2]: blocked the ApoE4+Chol induced increase | reduction of nuclear import of HDAC4 (HDAC4): 35±6.9% | reduction in nuclear HDAC6 (HDAC6): 56±5.9%
